Test results taken from publication PMC7703437, “In Vitro Hepatic Metabolism of Curcumin Diethyl Disuccinate by Liver S9 from Different Animal Species” (Frontiers in Pharmacology, 2020).
Several values for one entry are separate records, joined by “and”; a condition that tells them apart may be missing. Identical values can stand only once.

How the values were obtained:
MLS9 = test: CDD depletion in MLS9 0.02 mg/ml (optimisation of incubation condition); type: in vitro ADME, monkey; details: CDD 3 μM
Procedure: The metabolism profiles of CDD and curcumin formation profile were investigated against HLS9, MLS9, DLS9 and RLS9. A stock solution of CDD was prepared at 150 µM in 50% acetonitrile in water before use. The metabolism study was initiated by spiking a 588 µl pre-incubated LS9 with 12 µl CDD stock solution, and subsequently incubated at 37°C. The final concentrations of CDD and LS9 were 3 µM and 0.02 mg/ml, respectively. A 50 µl aliquot from the mixture was collected at 0.5, 1, 2, 3, 4, 5, 10, 15, 30, 45 and 60 min and was immediately mixed with 100 µl of ice-cold acetonitrile containing 0.45 µM of internal standard DMC to terminate the metabolic reaction. […] Samples of 120 µl of supernatant wee diluted with 40 µl of water prior to UHPLC analysis (Agilent series 1290, Agilent Technology, USA) by means of protocol outlined in Materials and Methods:“In vitro Metabolism Profiling of Curcumin Diethyl Disuccinate”. The sample at 0 min was prepared as other samples except that heat-inactivated HLS9, MLS9, DLS9 and RLS9 (80°C for 20 min; 1 mg/ml protein) were used. Duplicates were conducted for each experiment.
The peak area ratios of CDD and curcumin to internal standard in the supernatant were determined. The percent contents of CDD and curcumin were plotted against incubation time. The depletion of CDD was calculated with reference to the initial concentration. The saturated substrate was defined as % depletion less than 30.

[1] = In vitro metabolism profiling of CDD in monkey liver S9 (1 mg/ml); type: in vitro ADME, monkey (cynomolgus); details: liver S9; monkey LS9 1 mg/ml; read-out: t 1/2 (CDD)
Procedure: (§1) The metabolism profiles of CDD were investigated against HLS9, MLS9, DLS9, and RLS9. A stock solution of CDD was prepared at 150 µM in 50% acetonitrile in water before use. The metabolism study was initiated by spiking 735 µl of preincubated LS9 with 15 µl of CDD stock solution, and the mixture was subsequently incubated at 37°C. The final concentrations of CDD and LS9 were 3 μM and 1 mg/ml, respectively. A 50-µl aliquot from the mixture was collected at 0.5, 1, 2, 3, 4, 5, 10, 15, 30, 45, 60, 90, and 120 min and immediately mixed with 100 µl of ice-cold acetonitrile containing 0.45 µM of internal standard DMC to terminate the metabolic reaction. […] The sample at the initial time point (0 min) was prepared as the other samples, except that heat-inactivated HLS9, MLS9, DLS9, and RLS9 (80°C for 20 min; 1 mg/ml protein) were used.
(§2) The UHPLC system consisted of an Agilent series 1290 quaternary pump with an online degasser, autosampler, column oven, and diode array detector. The mobile phase was composed of (A) 0.1% (v/v) formic acid in acetonitrile and (B) 0.1% (v/v) formic acid in water. Each solution was filtered through a nylon filter (pore size, 0.22 µm; MS® Membrane Filters; Membrane Solutions, United States) before use. The mobile phase flow rate was kept at 1.2 ml/min in a gradient mode using the following elution program: 0–3.0 min, initial A-B (40:60, v/v); 4.5–7.0 min, isocratic elution A-B [50:50, (v/v); 8.5–11.0 min, isocratic elution A-B (60:40, v/v); and 12.0–17.0 min, isocratic elution A-B (40:60, v/v)]. CDD, curcumin, and MSCUR in the supernatant were partitioned using a C8 column (4.6 mm × 50 mm, 2.7 µm; HALO, Advanced Materials Technology, United States) with reference to DMC. The detection wavelength was set at 400 nm (λ max(CDD) = 400 nm, λ max(curcumin) = 427 nm, λ max(MSCUR) = 418 nm, and λ max(DMC) = 421 nm). The column was maintained at 35°C throughout the run, and the supernatant injection volume was set at 20 µl.
(§3) The concentrations of CDD, curcumin, and MSCUR in the supernatant were determined from the standard plots, which were prepared by spiking individual working solutions of the compounds to heat-inactivated HLS9, MLS9, DLS9, and RLS9 ([Alcorn et al., 2007]; [Montoro-Garcia et al., 2009]; [Singh et al., 2010]). These working standards were extracted with 100 µl of ice-cold acetonitrile containing 0.45 µM of DMC and then 120 μl of the supernatant was diluted with 40 μl of water prior to the UHPLC analysis. The peak area ratios of CDD, curcumin, and MSCUR to the internal standard were computed against linear concentration ranges of 0.025–4.5 µM CDD, 0.025–4.5 µM curcumin, and 0.0125–0.75 µM MSCUR, respectively, with the coefficient of determination (r^2) values greater than 0.99.
(§4) The percent content of CDD and the metabolites formed upon its incubation with LS9, namely, curcumin and MSCUR, was plotted against incubation time.
(§5) The following equations were adopted to describe the changes in CDD and MSCUR content over time (t): A = A0e^−k1t (2) B= k1A0/k2−k1(e^−k1t−e^−k2t), (3) where A0 is the CDD concentration at time 0, k 1 is the degradation rate constant of CDD, and k 2 is the degradation rate constant of MSCUR. k 1 and k 2 were determined by using Eqs. 2 and 3, respectively, with nonlinear regression analysis using the SOLVER function of Microsoft Excel for Office 365 MSO (16.0.12527.20986) ([Brown, 2001]). The half-life (t 1/2) was calculated using Eq. 4: t1/2=0.693/k (4)
(§6) The in vitro intrinsic clearance (CLint,in vitro) of CDD and MSCUR in LS9 was calculated using Eq. 5: CLint, in vitro= k × [V]incubation(ml)/[P]incubation(mg protein), (5) where [V]incubation is the incubation volume in ml, and [P]incubation is the amount of LS9. […]

[2] = tested on: monkey LS9 (MLS9; cynomolgus); test: as above; type: in vitro ADME
Procedure: as §1, §2, §3, §4, §5, §6

[3] = tested on: rat LS9 (RLS9; Sprague–Dawley); test: In vitro metabolism profiling of CDD in rat liver S9 (1 mg/ml); type: in vitro ADME
Procedure: as §1, §2, §3, §4, §5, §6

[4] = as above; type: in vitro ADME, rat (Sprague–Dawley); details: Sprague-Dawley, liver S9; rat LS9 1 mg/ml; read-out: t 1/2 (CDD)
Procedure: as §1, §2, §3, §4, §5, §6

CCOC(=O)CCC(=O)Oc1ccc(/C=C/C(=O)/C=C(O)/C=C/c2ccc(OC(=O)CCC(=O)OCC)c(OC)c2)cc1OC [CDD, curcumin diethyl disuccinate]
% CDD remaining (MLS9; 0.5 min): 75.32% | %Depletion of CDD (MLS9; 0.5 min (selected incubation time)): 25% and 24.68% | % CDD remaining (MLS9; 1 min): 63.90% | %Depletion of CDD (MLS9; 1 min): 36.10% | % CDD remaining (MLS9; 2 min): 49.34% | %Depletion of CDD (MLS9; 2 min): 50.66% | % CDD remaining (MLS9; 3 min): 37.51% | %Depletion of CDD (MLS9; 3 min): 62.49% | % CDD remaining (MLS9; 4 min): 28.36% | %Depletion of CDD (MLS9; 4 min): 71.64% | % CDD remaining (MLS9; 5 min): 21.92% | %Depletion of CDD (MLS9; 5 min): 78.08% | half-life at 3 µM [1]: 52.2 ± 7.8 s | CLint, in vitro(CDD) ([2]; monkey LS9): 0.81 ± 0.13 ml min^−1 mg protein^−1 | k 1 (CDD) ([2]; monkey LS9 1 mg/ml, CDD 3 µM, 37°C): 0.81 ± 0.13 min⁻¹ | CLint, in vivo(CDD) ([2]; monkey, scaled from CLint,in vitro with physiologically based scaling factors): 176.96 ± 27.49 L/h/kg | CLint, in vivo total ([2]; monkey, sum of CLint,in vivo(CDD) and CLint,in vivo(MSCUR)): 4,704.26 ± 695.64 L h^−1 kg^−1 | CLH (predicted hepatic clearance) ([2]; monkey, well-stirred model, QH 44 ml min^−1 kg^−1, fup 0.0594): 2.61 ± 3.87 × 10^–3 L h^−1 kg^−1 | CLint, in vitro(CDD) ([3]; rat LS9): 0.68 ± 0.13 ml min^−1 mg protein^−1 | k 1 (CDD) ([3]; rat LS9 1 mg/ml, CDD 3 µM, 37°C): 0.68 ± 0.13 min⁻¹ | CLint, in vivo(CDD) ([3]; rat, scaled from CLint,in vitro with physiologically based scaling factors): 197.51 ± 37.52 L/h/kg | CLint, in vivo total ([3]; rat, sum of CLint,in vivo(CDD) and CLint,in vivo(MSCUR)): 3,002.88 ± 180.63 L h^−1 kg^−1 | CLH (predicted hepatic clearance) ([3]; rat, well-stirred model, QH 70 ml min^−1 kg^−1, fup 0.0594): 4.10 ± 5.77 × 10^–3 L h^−1 kg^−1 | half-life at 3 µM [4]: 62.4 ± 10.8 s
